In the supplement of paper PMC10307832 one finds relative viability data, which are given here for one cell line.

Test in all cases: relative viability (nuclei count vs DMSO), 5 days (fraction); higher = more cells survive
Compound in assay [1]: CC1=C(CC(=O)O)c2cc(F)ccc2/C1=C\c1ccc([S+](C)[O-])cc1 [Sulindac] + CC1(C)CCC(c2ccc(Cl)cc2)=C(CN2CCN(c3ccc(C(=O)NS(=O)(=O)c4ccc(N[C@H](CCN5CCOCC5)CSc5ccccc5)c(S(=O)(=O)C(F)(F)F)c4)cc3)CC2)C1 [Navitoclax] (partner 0.5 µM)
In outline:
(§1)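 Relative viability divides the nuclei count in treated wells by that in vehicle wells. Lung cancer cell lines were seeded in 1536-well plates, dosed by pin tool the next day, and fixed and stained after 5 days in one step with final 0.05% Triton X-100, 1% formaldehyde and 1 ug/ml Hoechst. Dosing was a single drug or a fixed anchor-drug dose plus five library-drug doses (not always all listed) in √10 steps, and values are medians of duplicate plates imaged at 4×.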

Compound in assay [2]: CC1=C(CC(=O)O)c2cc(F)ccc2/C1=C\c1ccc([S+](C)[O-])cc1 [Sulindac] + C[C@@H](Oc1cc(-c2cnn(C3CCNCC3)c2)cnc1N)c1c(Cl)ccc(F)c1Cl [Crizotinib] (partner 1 µM)
A digest of the protocol:
as §1

Compound in assay [3]: CN[C@@H]1C[C@H]2O[C@@](C)([C@@H]1OC)n1c3ccccc3c3c4c(c5c6ccccc6n2c5c31)C(=O)NC4 [Staurosporine] + CS(=O)(=O)CCNCc1ccc(-c2ccc3ncnc(Nc4ccc(OCc5cccc(F)c5)c(Cl)c4)c3c2)o1 [Lapatinib] (partner 2 µM)
In outline:
as §1

Compound in assay [4]: CN[C@@H]1C[C@H]2O[C@@](C)([C@@H]1OC)n1c3ccccc3c3c4c(c5c6ccccc6n2c5c31)C(=O)NC4 [Staurosporine] + Cc1nc(NC(=O)N2CCC[C@H]2C(N)=O)sc1-c1ccnc(C(C)(C)C(F)(F)F)c1 [Alpelisib] (partner 2 µM)
In outline:
as §1

In the case of UMC-11, the relative viability in assay [1] (first compound 0.08 µM) is 0.3; in assay [1] (first compound 0.253 µM), 0.305; in assay [1] (first compound 0.8 µM), 0.309; in assay [1] (first compound 2.53 µM), 0.292; in assay [1] (first compound 8 µM), 0.38; in assay [2] (first compound 0.08 µM), 0.862. The relative viability in assay [2] (first compound 0.253 µM) was determined as 0.525; in assay [2] (first compound 0.8 µM), 0.66; in assay [2] (first compound 2.53 µM), 0.578; in assay [2] (first compound 8 µM), 0.901; in assay [3] (first compound 0.005 µM) it was 1.14; in assay [3] (first compound 0.01581 µM) it was 0.158. In addition, the relative viability was found to be 0.408 in assay [3] (first compound 0.05 µM); 0.141 in assay [3] (first compound 0.1581 µM); 0.0855 in assay [3] (first compound 0.5 µM); 0.882 in assay [4] (first compound 0.005 µM); 0.427 in assay [4] (first compound 0.01581 µM); 0.461 in assay [4] (first compound 0.05 µM). Also, the values for the relative viability in assay [4] (first compound 0.1581 µM) and in assay [4] (first compound 0.5 µM) were 0.145 and 0.0643, respectively.
